Assays:
Assay type in all cases: in vivo
[1] = Intragastric pressure in the rat; details: dose of 0.13 mg/kg s.c.; fasted conscious restrained rats; 40 minute period following dosing
Method: Intragastric pressure changes were recorded from fasted conscious and restrained rats using a saline filled catheter inserted into the lumen of the stomach via a permanent gastric fistula. The catheter was connected to a physiological pressure transducer and pressure changes recorded on a hot wire pen recorder. An index of activity was obtained by measuring the average height of pressure waves during 10 minute periods. Values for 4 such periods were obtained during assessment of spontaneous activity prior to dosing and for the 40 minute period following dosing with compound or vehicle. The Student's " t " test was applied to the mean values obtained for activity prior to and post treatment. Groups of 10 animals were used for each treatment.

[2] = test system: von Bezold-Jarisch reflex evoked by 5-HT; experiment: Antagonism of the von Bezold-Jarisch reflex; details: iv; anaesthetised rat; reduces the 5-HT-evoked heart rate response to 50% of the control response
Method: The compounds were evaluated for antagonism of the von Bezold-Jarisch reflex evoked by 5-HT in the anaesthetised rat according to the following method: • Male rats, 250-350g, were anaesthetised with urethane (1.25g/kg intraperitoneally) and blood pressure and heart rate recorded as described by Fozard J.R. et al., J. Cardiovasc. Pharmacol. 2, 229-245 (1^80). A submaximal dose of 5-HT (usually 6ug/kg) was given repeatedly by the intravenous route and changes in heart rate quantified. Compounds were given intravenously and the concentration required to reduce the 5-HT-evoked response to 50% of the control response (ED50) was then determined.

[3] = Intraluminal pressure in the Heidenhain pouch of the dog; details: dose of O.Olmg/kg i.v.; fasted conscious dog, chronic Heidenhain pouch; for at least 4-5 minutes
Method: Pressure changes were recorded via a saline filled catheter inserted, with airtight closure, into the fistula of a chronic Heidenhain pouch of the previously fasted and lightly restrained conscious dog. The catheter was connected to a physiological pressure transducer and pressure changes recorded on a hot wire pen recorder. Compounds were administered when the motility was in a phase of relatively low activity and the dose range determined which induced an increase in the amplitude of rhythmical contractions for a period of at least 4-5 minutes.

Structure (SMILES)	Intragastric pressure changes (average height of pressure waves) [1]	ED50 [2]	increase in the amplitude of rhythmical contractions (intraluminal pressure) [3]
COc1cc(N)c(Cl)cc1C(=O)NC1CC2CCC(C1)N2C (stereo not drawn) [Compound No. 20, (endo)-4-amino-5-chloro-2-methoxy-N-(8-methyl-8-azabicyclo[3.2.1]octyl) benzamide]	active	0.8 ± 0.2 µg/kg	–
COc1cc(N)c(Br)cc1C(=O)NC1CC2CCC(C1)N2C (stereo not drawn) [Example 1, (endo)-4-Amino-5-bromo-2-methoxy-N-(8-methyl-8-aza-bicyclo[3,2,l]oct-3-yl) benzamide]	–	–	active
